The results in this text go back to patent US20090048243A1, “THERAPEUTIC AGENT FOR ATTENTION-DEFICIT HYPERACTIVITY DISORDER” (MITSUBISHI PHARMA CORPORATION, priority 2005, published 2009).

For orientation: ED50 means the midpoint of the dose-response relation. By Ki is commonly meant a dissociation constant, usually derived from enzyme kinetics or from competition with a known ligand. A high value points to weaker binding.

Structures can show the parent of a compound that is named as a salt. Where two headings read alike, the source gives them in different places.

For data set [1], the system named is rats with juvenile dopamine neulolysis due to 6-OH-DA treatment. Nature of the data set: Suppressive effect on increased motor activity in rats with juvenile dopamine neulolysis due to 6-OH-DA treatment. In kind it is in vivo, rat. The note with it: for ED50: Rattus norvegicus, read-out: ED50 for the suppression of increased motor activity due to the 6-OH-DA treatment as 100%; for Effect on increased motor activity due to the 6-OH-DA treatment: compound A 1, 3 or 10 mg/kg, Atomoxetine 1, 3, 10 or 30 mg/kg, vs 0.5% HPMC control. Here is the method: Suppressive effect on increased motor activity in rats with juvenile dopamine neulolysis due to 6-OH-DA treatment Male SD rats (Charles River Japan) were pre-treated with desipramine (Sigma Ltd.) in accordance with the method of Zhang et al. (Neuropsychopharmacology 2001 November;25(5):624-32) on day 5 after birth, after which 6-hydroxydopamine (hereinafter referred to as 6-OH-DA) (Sigma Ltd.) was administered to the cerebral ventricle on one side. During 12 to 18 days after birth, acclimation to a motor activity measurement apparatus (Toyo Sangyo) was performed three times; on day 19 after birth, motor activity was measured and the animals were grouped. […] For control, 0.5% HPMC (hydroxypropylmethylcellulose) was orally administered.

Data set [2] has as its system norepinephrine uptake into mouse cerebral synaptosome. Nature of the data set: Norepinephrine uptake inhibitory action in crude synaptosome fraction. The class given is biochemical. Particulars: male ddy mouse hyppocampus synaptosome; tritiated norepinephrine; 37° C., 10 minutes; read-out: 50% inhibitory concentration (IC50) for norepinephrine uptake into mouse cerebral synaptosome. Here is the method: Using a publicly known method (Journal of Pharmacology and Experimental Therapeutics, Vol.165, p.78, 1969) with partial modification, norepinephrine uptake inhibitory action was measured.
A crude synaptosome fraction was separated from the hyppocampus of a male ddy mouse, suspended in Krebs-Henseleit buffer solution (pH 7.4), and used in the experiments. Next, each test compound at several different concentrations was added to the synaptosome suspension and pre-incubated for 5 minutes, after which tritiated norepinephrine (Japan Radioisotope) was added to the reaction liquor, and they were reacted at 37° C. for 10 minutes. After the reaction, the reaction liquor was suction-filtered through a Whatman GF/B filter (NeuroScience, Inc.), and the filter was washed with Krebs-Henseleit buffer solution (pH 7.4), after which radioactivity remaining in the filter was measured using a liquid scintillation counter (Packard company, 3380 model). Norepinephrine concentration dependent uptake was obtained by subtracting the uptake at 0° C. from the uptake at 37° C. 50% inhibitory concentrations were graphically calculated, and inhibition constants (Ki values) were determined.

For the next data set, the target named is T1, 5-HT2A receptor (Rattus norvegicus, UniProt P14842).
T1 construct: A crude synaptosome fraction was separated from the cerebral cortex of Wistar rats; from tissue; host or cells: Wistar rat cerebral cortex, crude synaptosome fraction
In words: Specific 5-HT2A receptor binding test (tritiated ketanserin, cerebral cortex crude synaptosome fraction). The note with it: Wistar rat cerebral cortex synaptosome; tritiated ketanserin 0.2 nmol/L; 37° C., 20 minutes. Here is the method:
A specific 5-HT2A receptor binding test was performed in accordance with a publicly known method (Molecular Pharmacology, Vol.21, p.301, 1981).
A crude synaptosome fraction was separated from the cerebral cortex of Wistar rats at 6 to 12 weeks of age (SEAC Yoshitomi), suspended in 50 mmol/L tris-HCl buffer solution (pH 7.7) (Nacalai Tesque, Inc.), and used in the experiments. Next, each test compound at several different concentrations and tritiated ketanserin (final concentration 0.2 nmol/L) (Japan Radioisotope) were added to the synaptosome suspension, and they were reacted at 37° C. for 20 minutes. After the reaction, the reaction liquor was suction-filtered through a Whatman GF/B filter (NeuroScience, Inc.), and the filter was washed with 50 mmol/L tris-HCl buffer solution (pH 7.7), after which radioactivity remaining in the filter was measured using a liquid scintillation counter (Aloka Co., Ltd.). Non-specific binding was determined in the presence of 10^−5 mmol/L mianserin (Sigma Ltd.). 50% inhibitory concentrations were graphically calculated, and inhibition constants (Ki values) were determined.

A further data set concerns normal rats. Nature of the data set: Effect on motor activity in normal rats. The class given is in vivo, rat. Particulars: oral (FIG. 1-B).

T1 sequence (P14842 whole entry): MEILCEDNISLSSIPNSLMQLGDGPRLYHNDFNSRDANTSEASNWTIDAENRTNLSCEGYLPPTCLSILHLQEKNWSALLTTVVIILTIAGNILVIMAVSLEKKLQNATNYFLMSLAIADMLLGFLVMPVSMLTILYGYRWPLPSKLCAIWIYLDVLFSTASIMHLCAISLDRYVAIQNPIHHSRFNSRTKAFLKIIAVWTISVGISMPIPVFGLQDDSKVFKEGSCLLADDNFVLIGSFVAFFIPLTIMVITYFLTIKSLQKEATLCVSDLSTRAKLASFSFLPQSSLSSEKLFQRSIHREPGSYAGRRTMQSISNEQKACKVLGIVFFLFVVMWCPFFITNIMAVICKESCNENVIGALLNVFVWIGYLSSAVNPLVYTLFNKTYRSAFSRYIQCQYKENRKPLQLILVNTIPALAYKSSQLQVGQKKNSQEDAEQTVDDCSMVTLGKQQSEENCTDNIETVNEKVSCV

Regarding `CNCCC(Oc1ccccc1C)c1ccccc1.Cl` (single isomer, unassigned; (-)) [Atomoxetine, (−)-N-methyl-3-((2-methylphenyl)oxy)-3-phenyl-1-aminopropane hydrochloride, reference compound], in data set [1] (po), the ED50 is 24 mg/kg. Also, in data set [1] (oral), the “Effect on increased motor activity due to the 6-OH-DA treatment” value was “dose-dependently suppressed, but no significant suppression was observed”.

On to `c1csc(Cc2ccccc2OC[C@H]2CNCCO2)c1` [B, R-2-[[o-(2-thenyl)phenoxy]methyl]morpholine maleic acid salt], for which, in data set [2], the IC50 was 33 nM. Further, the affinity on 5-HT2A receptor corresponds to a Ki of 1000 nM.

Regarding `c1csc(Cc2ccccc2OC[C@@H]2CNCCO2)c1` [compound A, S-2-[[o-(2-thenyl)phenoxy]methyl]morpholine maleic acid salt], in data set [1] (oral, motor activity during 30 minutes following 1 hour after administration, linear regression), the 50% effective dose (ED50) stood at 1.7 mg/kg. Besides, the “Dose from which a significant difference in suppression of increased motor activity was observed” value in data set [1] (oral, P<0.01 versus control (Dunnett method)) was no less than 3 mg/kg. For the same molecule, the “Effect on increased motor activity due to the 6-OH-DA treatment” value in data set [1] (oral) is given as “dose-dependently inhibited”. The “Suppression of motor activity in normal rats” value in the data set on normal rats was “no significant suppression of motor activity was observed”. For the same molecule, the IC50 in data set [2] stood at 2.6 nM. Also, on 5-HT2A receptor, the Ki amounted to 26 nM.

On to `c1csc(Cc2ccccc2OCC2CNCCO2)c1` (racemic) [teniloxazine, (±)-2-[[o-(2-thenyl)phenoxy]methyl]morpholine maleic acid salt, reference compound], for which, in data set [2], the IC50 amounted to 12 nM. For the same molecule, the Ki on 5-HT2A receptor amounted to 49 nM.
